US4800207A, “Hexahydropyrrolizine compounds useful as analgesics” (McNeilab, Inc., priority 1987, dated 1989)

Tested on: Mouse Acetylcholine-Bromide-Induced Abdominal Constriction
Experiment: Mouse Acetylcholine-Bromide-Induced Abdominal Constriction Assay
Type: in vivo
Conditions: p.o. 30 minutes before 5.5 mg/kg i.p. acetylcholine bromide, ten minute observation; for % Inhibition 30 mg Kg (percent inhibition of writhing, % analgesia): at least 20 animals per group; for ED50: Mus musculus, po, four doses, probit analysis, read-out: ED50 (that dose which inhibits writhing by 50%)
Description: Mouse Acetylcholine-Bromide-Induced Abdominal Constriction Assay
The mouse acetylcholine-induced abdominal constriction assay, as described by Collier et al. in Brit. J. Pharmacol. Chemother, 32: 295-310, 1968, with minor modifications was one test used to assess analgesic potency. The test drugs or appropriate vehicle were administered p.o. and 30 minutes later the animals received an i.p. injection of 5.5 mg/kg acetylcholine bromide (Matheson, Coleman and Bell, East Rutherford, N.J.). The mice where then placed in groups of four into glass bell jars and observed for a ten minute observation period for the occurrence of a writhe which is defined as a wave of constriction and elongation passing caudally along the abdominal wall, accompanied by a twisting of the trunk and followed by extension of the hind limbs. The percent inhibition of writhing (equated to % analgesia) was calculated as follows: The % inhibition of writhing, i.e., % analgesia is equal to the difference between the number of control animals writhing and the number of drug-treated animals writhing times 100 divided by the number of control animals writhing.
At least 20 animals were used for control and in each of the drug treated groups. Four doses were used to determine each dose response curve and ED50 (that dose which inhibits writhing by 50%). The ED50 values and their 95% fiducial limits were determined by a computer assisted probit analysis.

| SMILES | % Inhibition 30 mg Kg (percent inhibition of writhing, % analgesia) [%] | ED50 [mg/kg] |
| --- | --- | --- |
| Brc1ccccc1C1CCC2CCCN21 (single isomer, unassigned) [2f (diasteriomer A), 3-(2-bromophenyl)hexahydro-1H-pyrrolizine] | 60 |  |
| Brc1ccccc1C1CCC2CCCN21 (single isomer, unassigned) [2f (diasteriomer B), 3-(2-bromophenyl)hexahydro-1H-pyrrolizine] | 100 | 8.7 |
| c1ccc(C2CCC3CCCN32)cc1 (stereo not drawn) [Example 1, Hexahydro-3-phenyl-1H-pyrrolizine] | 100 | 5.7 |
| Cc1ccc(C2CCC3CCCN32)cc1 (stereo not drawn) [Example 3d, Hexahydro-3-(4-methylphenyl)-1H-pyrrolizine] | 100 |  |
